Laboratory results: article PMC11022890 (Drug Metabolism and Disposition, 2021)

Columns and labels:
UGT1A9 [1] = target: T1, UGT1A9 (Homo sapiens, UniProt O60656); experiment: in vitro; details: both, HLM
T1 sequence (O60656 26-530): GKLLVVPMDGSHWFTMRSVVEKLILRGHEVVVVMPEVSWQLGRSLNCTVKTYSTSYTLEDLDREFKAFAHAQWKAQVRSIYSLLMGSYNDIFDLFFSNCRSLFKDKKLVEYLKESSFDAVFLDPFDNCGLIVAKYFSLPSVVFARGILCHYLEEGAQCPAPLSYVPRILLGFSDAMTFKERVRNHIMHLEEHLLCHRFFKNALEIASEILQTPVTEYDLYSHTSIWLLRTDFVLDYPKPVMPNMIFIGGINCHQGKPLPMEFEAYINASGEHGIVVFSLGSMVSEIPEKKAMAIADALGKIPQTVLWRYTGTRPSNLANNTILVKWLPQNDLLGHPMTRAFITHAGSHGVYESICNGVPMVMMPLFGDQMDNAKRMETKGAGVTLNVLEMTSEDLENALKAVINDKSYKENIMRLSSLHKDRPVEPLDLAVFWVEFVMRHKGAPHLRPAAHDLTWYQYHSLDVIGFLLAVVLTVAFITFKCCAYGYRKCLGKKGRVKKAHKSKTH

UGT1A9 [2] = target: T1, UGT1A9; experiment: in vitro; details: both, HLM; remark: listed apart in the source
UGT2B7 = target: T2, UGT2B7 (Homo sapiens, UniProt P16662); type: in vitro ADME; details: rUGT2B7 microsomes
T2 sequence (P16662 24-529): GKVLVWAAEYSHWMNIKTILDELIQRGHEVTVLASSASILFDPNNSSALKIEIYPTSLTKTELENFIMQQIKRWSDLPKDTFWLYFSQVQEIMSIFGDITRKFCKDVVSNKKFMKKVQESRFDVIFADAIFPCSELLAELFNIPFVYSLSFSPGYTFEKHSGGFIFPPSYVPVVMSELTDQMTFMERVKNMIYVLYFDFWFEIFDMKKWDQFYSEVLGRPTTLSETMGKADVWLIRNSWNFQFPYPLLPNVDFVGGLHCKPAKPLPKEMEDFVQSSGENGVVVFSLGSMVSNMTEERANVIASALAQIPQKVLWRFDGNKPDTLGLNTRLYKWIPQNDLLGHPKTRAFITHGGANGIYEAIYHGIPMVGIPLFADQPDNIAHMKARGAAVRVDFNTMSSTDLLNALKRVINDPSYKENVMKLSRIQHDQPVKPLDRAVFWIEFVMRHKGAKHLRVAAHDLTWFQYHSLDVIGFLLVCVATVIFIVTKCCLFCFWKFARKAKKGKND

UGT2B17 = target: T3, UGT2B17 (Homo sapiens, UniProt O75795); type: in vitro ADME; details: 100 µM; rUGT2B17 microsomes; dihydroexemestane; screening
T3 sequence (O75795 24-530): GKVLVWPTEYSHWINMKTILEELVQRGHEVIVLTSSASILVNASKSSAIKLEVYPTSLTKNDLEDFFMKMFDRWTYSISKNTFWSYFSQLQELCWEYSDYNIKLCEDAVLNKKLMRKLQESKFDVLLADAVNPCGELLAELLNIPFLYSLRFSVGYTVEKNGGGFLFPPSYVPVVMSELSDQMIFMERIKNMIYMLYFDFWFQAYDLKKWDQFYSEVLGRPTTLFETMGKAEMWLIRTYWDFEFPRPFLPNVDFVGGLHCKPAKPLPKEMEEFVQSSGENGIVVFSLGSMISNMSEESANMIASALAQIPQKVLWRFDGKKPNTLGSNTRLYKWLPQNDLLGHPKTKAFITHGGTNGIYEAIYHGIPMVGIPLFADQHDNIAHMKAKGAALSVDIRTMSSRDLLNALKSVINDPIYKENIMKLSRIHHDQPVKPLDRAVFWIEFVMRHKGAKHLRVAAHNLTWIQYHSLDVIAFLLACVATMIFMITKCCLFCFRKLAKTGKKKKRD

[3] = target: T4, UGT1A9 in human kidney microsomes (Homo sapiens, UniProt O60656); experiment: Inhibition of acetaminophen glucuronidation; details: HKM
T4 sequence (O60656 26-530): T1 sequence (O60656 26-530)

UGT1A9 [4] = target: T1, UGT1A9; experiment: Inhibition of acetaminophen glucuronidation in rUGT1A9 microsomes; type: in vitro ADME; details: IC50, probe substrate acetaminophen
UGT1A4 = target: T5, UGT1A4 (Homo sapiens, UniProt P22310); experiment: Screening: inhibition of trifluoperazine glucuronidation in rUGT1A4 microsomes; type: in vitro ADME; details: 10 or 100 µM
T5 sequence (P22310 29-534): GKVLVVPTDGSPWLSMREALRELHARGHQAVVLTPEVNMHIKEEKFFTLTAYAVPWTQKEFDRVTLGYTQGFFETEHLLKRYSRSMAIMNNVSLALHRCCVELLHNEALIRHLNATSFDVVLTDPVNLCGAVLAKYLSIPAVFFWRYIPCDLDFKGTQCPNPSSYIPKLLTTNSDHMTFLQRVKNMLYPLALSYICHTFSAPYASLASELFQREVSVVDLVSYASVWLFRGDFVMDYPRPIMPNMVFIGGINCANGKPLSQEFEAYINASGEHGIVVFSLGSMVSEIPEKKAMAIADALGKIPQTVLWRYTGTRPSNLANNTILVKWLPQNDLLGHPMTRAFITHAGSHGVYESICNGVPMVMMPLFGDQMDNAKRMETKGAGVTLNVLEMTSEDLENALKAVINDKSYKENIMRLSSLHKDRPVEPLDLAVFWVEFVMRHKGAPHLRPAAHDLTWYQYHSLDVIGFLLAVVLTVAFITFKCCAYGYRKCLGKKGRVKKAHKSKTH

[5] = IC50, probe substrate acetaminophen
[6] = IC50,u (binding-corrected IC50), probe substrate acetaminophen
[7] = IC50, probe substrate furosemide
[8] = IC50,u (binding-corrected IC50), probe substrate furosemide

| Structure (SMILES) | IC50 (UGT1A9 [1]; [5]) [µM] | IC50 (UGT1A9 [1]; [6]) [µM] | IC50 (UGT1A9 [2]; [7]) [µM] | IC50 (UGT1A9 [2]; [8]) [µM] | inhibition in screening (in words) (UGT2B7; 10 or 100 µM) | inhibition vs control without cannabinoid (UGT2B17) [%] | IC50 [3, 5] [µM] | IC50 [3, 6] [µM] | IC50 (UGT1A9 [4]) [µM] | inhibition in screening (in words) (UGT1A4) | inhibition vs control without cannabinoid (UGT2B7; 10 µM, zidovudine, screening) [%] |
| --- | --- | --- | --- | --- | --- | --- | --- | --- | --- | --- | --- |
| CCCCCc1cc(O)c2c(c1)OC(C)(C)c1ccc(C)cc1-2 [CBN, cannabinol] | 34 ± 6.3 | 3.1 ± 0.58 | 30 ± 4.5 | 2.8 ± 0.96 | significant inhibition | 34 | 21 ± 3.4 | 2.6 ± 0.41 | 6.9 ± 0.54 | no significant inhibition |  |
| C=C(C)[C@@H]1CCC(C)=C[C@H]1c1c(O)cc(CCCCC)cc1O [CBD, cannabidiol] | 12 ± 3.2 | 0.64 ± 0.16 | 29 ± 4 | 1.5 ± 0.2 |  | 43 | 3.8 ± 0.82 | 0.24 ± 0.05 | 1.9 ± 0.29 | no significant inhibition | 58 |
